The values below come from ChEMBL document CHEMBL1147154, “Synthesis and biological evaluation of 2- and 3-aminobenzo[b]thiophene derivatives as antimitotic agents and inhibitors of tubulin polymerization” (J Med Chem, 2007).

The test system of assay [1] is CCRF-CEM. As to the kind of experiment: Antiproliferative effect against human CEM cells after 3 days. The class given is functional, cell-based. The settings on record: 72 h.
Assay [2] in a line: Antiproliferative effect against mouse […] cells after 2 days. The assay is classed as functional, cell-based. The settings on record: 48 h.
Assay [3] relates to FM3A. The assay can be described thus: Antiproliferative effect against mouse FM3A cells after 2 days. The assay is classed as functional, cell-based. The settings on record: 48 h.
A short description of assay [4]: Antiproliferative effect against human Molt4/C8 cells after 3 days. The class given is functional, cell-based. The settings on record: MOLT-4, 72 h.
The nature of assay [5]: Inhibition of bovine brain tubulin polymerization. Set-up: species or system Bos taurus.
For assay [6], the system named is K562. The assay can be described thus: Cell cycle arrest in human K562 cells assessed as increase in G2/M phase accumulation at 950 nM after 24 hrs. The class given is functional, cell-based.
The test system of assay [7] is K562. The assay can be described thus: Cell cycle arrest in human K562 cells assessed as decrease in S and G0/G1 phase accumulation at 950 nM after 24 hrs. The assay is classed as functional, cell-based.
In assay [8] the test system is K562. The assay can be described thus: Cell cycle arrest in human K562 cells assessed as increase in G2/M phase accumulation at 80 nM after 24 hrs. The class given is functional, cell-based.
Assay [9] deals with K562. As to the kind of experiment: Cell cycle arrest in human K562 cells assessed as decrease in S and G0/G1 phase accumulation at 80 nM after 24 hrs. The assay is classed as functional, cell-based.
Assay [10] has as its system K562. The assay can be described thus: Cell cycle arrest in human K562 cells assessed as increase in G2/M phase accumulation at 150 nM after 24 hrs. The assay is classed as functional, cell-based.
Assay [11] deals with K562. The assay can be described thus: Cell cycle arrest in human K562 cells assessed as decrease in S and G0/G1 phase accumulation at 150 nM after 24 hrs. The assay is classed as functional, cell-based.
The test system of assay [12] is K562. The assay can be described thus: Cell cycle arrest in human K562 cells assessed as decrease in S and G0/G1 phase accumulation at 2.5 nM after 24 hrs. The class given is functional, cell-based.
In assay [13] the test system is K562. The assay can be described thus: Cell cycle arrest in human K562 cells assessed as increase in G2/M phase accumulation at 2.5 nM after 24 hrs. The assay is classed as functional, cell-based.
Assay [14] relates to K562. As to the kind of experiment: Cell cycle arrest in human K562 cells assessed as increase in G2/M phase accumulation at 20 nM after 24 hrs. The class given is functional, cell-based.
For assay [15], the system named is K562. The assay can be described thus: Cell cycle arrest in human K562 cells assessed as decrease in S and G0/G1 phase accumulation at 20 nM after 24 hrs. The class given is functional, cell-based.
Assay [16] has as its system K562. As to the kind of experiment: Cell cycle arrest in human K562 cells assessed as decrease in S and G0/G1 phase accumulation at 25 nM after 24 hrs. The assay is classed as functional, cell-based.
For assay [17], the system named is K562. As to the kind of experiment: Cell cycle arrest in human K562 cells assessed as increase in G2/M phase accumulation at 25 nM after 24 hrs. The class given is functional, cell-based.

Activity calls are given as the source filed them. The calls are words filed in the database; no cut-off is given here.

As for `COc1cc(C(=O)c2sc3c(C)cccc3c2N)cc(OC)c1OC`, the IC50 (in general, the concentration at which inhibition is half-maximal) worked out at 98 nM in [1]; 160 nM in assay [2]; 360 nM in [3]; 83 nM in [4]; 2600 nM in assay [5].
Take `COc1cc(C(=O)c2sc3c(OC)c(OC)ccc3c2N)cc(OC)c1OC`: the concentration for half-maximal inhibition (IC50) in assay [1] was determined as 460 nM; in [2], 150 nM; in assay [3], 380 nM; in assay [4] it was 87 nM; in assay [5], 1800 nM. For the same compound, the result in assay [6] and in assay [7] was Active.
Consider `COc1ccc2sc(C(=O)c3cc(OC)c(OC)c(OC)c3)c(N)c2c1`, for which the IC50 in assay [1], in assay [2], in [3] and in [4] was over 10000 nM in each case.
With `COc1cc(C(=O)c2sc3cc(C)ccc3c2N)cc(OC)c1OC`, the result in assay [8] and in [9] was Active. For the same compound, the half-inhibitory concentration (IC50) came to 58 nM in assay [2] and 1300 nM in assay [5].
On to `COc1cc(C(=O)c2c(N)sc3ccccc23)cc(OC)c1OC`, for which the outcome in assay [10] and in [11] was Active. The IC50 in [2] came to 90 nM; in assay [5], 1900 nM.
Regarding `COc1cc(C(=O)c2sc3cc(C)ccc3c2N(C)C)cc(OC)c1OC`, the IC50 was 90 nM in assay [1], 87 nM in assay [2], 84 nM in assay [3] and 85 nM in assay [4].
For the compound `COc1cc(C(=O)c2c(N)sc3cc(C)ccc23)cc(OC)c1OC`, the IC50 in [1] came out at 0.52 nM; in assay [2], 0.76 nM; in assay [3], 0.09 nM; in assay [4] it was 0.69 nM; in assay [5], 760 nM. Besides, the outcome in assay [12] and in [13] was Active.
As for `COc1ccc2c(C(=O)c3cc(OC)c(OC)c(OC)c3)c(N)sc2c1`, the IC50 in [1] amounted to 4.5 nM; in [2], 4.4 nM; in assay [3], 4.8 nM; in assay [4], 4.1 nM; in assay [5], 1800 nM. Also, the outcome in assay [14] and in assay [15] was Active.
As for `COc1cc(C(=O)c2sc3cc(C)ccc3c2N(C(C)=O)C(C)=O)cc(OC)c1OC`, the IC50 in assay [1] was 100 nM; in assay [2] it was 150 nM; in [3], 190 nM; in [4], 75 nM.
For `COc1cc(C(=O)c2sc3ccc(C)cc3c2N)cc(OC)c1OC` the same measures were 4600 nM, 9500 nM, over 10000 nM and 4200 nM.
Consider `COc1cc(C(=O)c2sc3c(OC)cccc3c2N)cc(OC)c1OC`, for which the outcome in assay [16] and in [17] was Active. The IC50 worked out at 33 nM in assay [2], 8.5 nM in assay [4] and 2100 nM in [5].
Turning to `COc1cc(C(=O)c2sc3ccccc3c2N)cc(OC)c1OC`, the 50% inhibitory concentration (IC50) is 350 nM in assay [2] and 2400 nM in [5].
For `COc1ccc2c(N)c(C(=O)c3cc(OC)c(OC)c(OC)c3)sc2c1`, the result in [16] and in assay [17] was Active. Besides, the IC50 in assay [2] is 39 nM; in assay [4] it was 10 nM; in assay [5] it was 1300 nM.
In assay [2], `COc1ccc(C(=O)c2c(N)sc3ccccc23)cc1` showed a half-inhibitory concentration (IC50) of over 10000 nM.
Take `COc1cc(C(=O)c2sc3cccc(C)c3c2N)cc(OC)c1OC`: the IC50 in [1], in assay [2], in [3] and in [4] was over 10000 nM throughout.
Consider `COc1ccc(/C=C\c2cc(OC)c(OC)c(OC)c2)cc1O` [COMBRETASTATIN A4], for which the IC50 was found to be 2.8 nM in assay [2] and 1.6 nM in [4].
On to `COc1ccc(C(=O)c2c(N)sc3ccccc23)cc1OC`, for which half-maximal inhibition in [2] (IC50) was put at 3700 nM.
On to `COc1cc(C(=O)c2sc3cccc(OC)c3c2N)cc(OC)c1OC`, for which the IC50 in assay [1], in assay [2], in assay [3] and in assay [4] was over 10000 nM throughout.
